{"source": "ChEMBL document CHEMBL6071148", "about": "“Synthesis and biological evaluation of novel 3,6- amide and thioamide substituted- 2,3,4,9-tetrahydro-1H-carbazoles for anti-cancer activity” (Eur J Med Chem, 2024)", "key": {"Mitochondrial membrane [1]": {"test_system": "Mitochondrial membrane", "test": "Disruption of mitochondrial membrane integrity in human A549 cells assessed as mitochondrial swelling by TEM analysis", "type": "cell membranes"}, "A549 [2]": {"test_system": "A549", "test": "Cytotoxicity against human A549 cells assessed as inhibition of cell proliferation incubated for 72 hrs by MTT assay", "type": "functional, cell-based", "conditions": "A549, 72 h"}, "[3]": {"test": "Cytotoxicity against human MRC5 cells assessed as inhibition of cell proliferation incubated for 72 hrs by MTT assay", "type": "toxicity, cell-based"}, "MCF7 [4]": {"test_system": "MCF7", "test": "Inhibition of colony formation in human MCF7 cells assessed as reduction in clonogenic capacity incubated for 24 hrs by crystal violet staining based analysis", "type": "functional, cell-based"}, "HCT-116": {"test_system": "HCT-116", "test": "Inhibition of colony formation in human HCT-116 cells assessed as reduction in clonogenic capacity incubated for 24 hrs by crystal violet staining based analysis", "type": "functional, cell-based"}, "A549 [5]": {"test_system": "A549", "test": "Inhibition of colony formation in human A549 cells assessed as reduction in clonogenic capacity incubated for 24 hrs by crystal violet staining based analysis", "type": "functional, cell-based"}, "A549 [6]": {"test_system": "A549", "test": "Inhibition of cell adhesion in human A549 cells assessed as reduction in cell aggregates formation at IC50 incubated for 48 hrs by inverted phase contrast microscopic analysis", "type": "functional, cell-based"}, "A549 [7]": {"test_system": "A549", "test": "Induction of cell cycle arrest in human A549 cells assessed as accumulation of cells at G1 phase at IC50 incubated for 24 hrs by PI staining based flow cytometric analysis (reference value: 37.40 +/- 2.40%)", "type": "functional"}, "A549 [8]": {"test_system": "A549", "test": "Induction of cell cycle arrest in human A549 cells assessed as accumulation of cells at G2 phase at IC50 incubated for 24 hrs by PI staining based flow cytometric analysis (reference value: 23.45 +/- 1.62%)", "type": "functional"}, "A549 [9]": {"test_system": "A549", "test": "Induction of cell cycle arrest in human A549 cells assessed as accumulation of cells at G1 phase at IC50 incubated for 48 hrs by PI staining based flow cytometric analysis (reference value: 53.5 +/- 4.01%)", "type": "functional"}, "A549 [10]": {"test_system": "A549", "test": "Induction of cell cycle arrest in human A549 cells assessed as accumulation of cells at S phase at IC50 incubated for 48 hrs by PI staining based flow cytometric analysis (reference value: 17.825 +/- 3.70%)", "type": "functional"}, "MCF7 [11]": {"test_system": "MCF7", "test": "Induction of cell cycle arrest in human MCF7 cells assessed as accumulation of cells at G1 phase at IC50 incubated for 24 hrs by PI staining based flow cytometric analysis relative to control", "type": "functional"}, "MCF7 [12]": {"test_system": "MCF7", "test": "Induction of cell cycle arrest in human MCF7 cells assessed as accumulation of cells at S phase at IC50 incubated for 24 hrs by PI staining based flow cytometric analysis relative to control", "type": "functional"}, "MCF7 [13]": {"test_system": "MCF7", "test": "Induction of cell cycle arrest in human MCF7 cells assessed as accumulation of cells at G2 phase at IC50 incubated for 24 hrs by PI staining based flow cytometric analysis relative to control", "type": "functional"}, "Mitochondrial membrane [14]": {"test_system": "Mitochondrial membrane", "test": "Induction of mitochondrial membrane depolarization in human A549 cells assessed as increase in mitochondrial fission by measuring appearance of spherical mitochondria by confocal microscopic analysis", "type": "cell membranes"}, "Mitochondrial membrane [15]": {"test_system": "Mitochondrial membrane", "test": "Induction of mitochondrial membrane depolarization in human MCF7 cells assessed as increase in mitochondrial fission by measuring appearance of spherical mitochondria by confocal microscopic analysis", "type": "cell membranes"}, "Mitochondrial membrane [16]": {"test_system": "Mitochondrial membrane", "test": "Induction of mitochondrial membrane depolarization in human A549 cells assessed as increase in mitochondrial fission by measuring appearance of circular mitochondria by confocal microscopic analysis", "type": "cell membranes"}, "Mitochondrial membrane [17]": {"test_system": "Mitochondrial membrane", "test": "Induction of mitochondrial membrane depolarization in human MCF7 cells assessed as increase in mitochondrial fission by measuring appearance of circular mitochondria by confocal microscopic analysis", "type": "cell membranes"}, "Mitochondrial membrane [18]": {"test_system": "Mitochondrial membrane", "test": "Disruption of mitochondrial membrane integrity in human A549 cells assessed as change in mitochondrial shape by TEM analysis", "type": "cell membranes"}, "Mitochondrial membrane [19]": {"test_system": "Mitochondrial membrane", "test": "Disruption of mitochondrial membrane integrity in human A549 cells assessed as change in mitochondrial internal organization by TEM analysis", "type": "cell membranes"}, "Mitochondrial membrane [20]": {"test_system": "Mitochondrial membrane", "test": "Disruption of mitochondrial membrane integrity in human MCF7 cells assessed as change in mitochondrial shape by TEM analysis", "type": "cell membranes"}, "Mitochondrial membrane [21]": {"test_system": "Mitochondrial membrane", "test": "Disruption of mitochondrial membrane integrity in human MCF7 cells assessed as change in mitochondrial internal organization by TEM analysis", "type": "cell membranes"}, "Mitochondrial membrane [22]": {"test_system": "Mitochondrial membrane", "test": "Disruption of mitochondrial membrane integrity in human MCF7 cells assessed as mitochondrial swelling by TEM analysis", "type": "cell membranes"}, "Mitochondrial membrane [23]": {"test_system": "Mitochondrial membrane", "test": "Disruption of mitochondrial membrane integrity in human MCF7 cells assessed as disruption of normal mitochondrial distribution by TEM analysis", "type": "cell membranes"}, "Mitochondrial membrane [24]": {"test_system": "Mitochondrial membrane", "test": "Disruption of mitochondrial membrane integrity in human A549 cells assessed as disruption of normal mitochondrial distribution by TEM analysis", "type": "cell membranes"}, "Mitochondrial membrane [25]": {"test_system": "Mitochondrial membrane", "test": "Disruption of mitochondrial membrane integrity in human A549 cells assessed as organization of mtDNA nucleoids within cells by TEM analysis", "type": "cell membranes"}, "Mitochondrial membrane [26]": {"test_system": "Mitochondrial membrane", "test": "Disruption of mitochondrial membrane integrity in human MCF7 cells assessed as organization of mtDNA nucleoids within cells by TEM analysis", "type": "cell membranes"}, "Mitochondrial membrane [27]": {"test_system": "Mitochondrial membrane", "test": "Disruption of mitochondrial membrane integrity in human MCF7 cells assessed as presence of large mitochondria by TEM analysis", "type": "cell membranes"}, "Mitochondrial membrane [28]": {"test_system": "Mitochondrial membrane", "test": "Disruption of mitochondrial membrane integrity in human MCF7 cells assessed as presence of bloated mitochondria by TEM analysis", "type": "cell membranes"}, "Mitochondrial membrane [29]": {"test_system": "Mitochondrial membrane", "test": "Disruption of mitochondrial membrane integrity in human MCF7 cells assessed as absence of well-developed cristae by TEM analysis", "type": "cell membranes"}, "Mitochondrial membrane [30]": {"test_system": "Mitochondrial membrane", "test": "Disruption of mitochondrial membrane integrity in human A549 cells assessed as absence of well-developed cristae by TEM analysis", "type": "cell membranes"}, "A549 [31]": {"test_system": "A549", "test": "Induction of apoptosis in human A549 cells assessed as apoptotic rate at IC50 incubated for 24 hrs by Annexin-V and 7-AAD staining based flow cytometric analysis (reference value: 4.56 +/- 0.81%)", "type": "functional"}, "A549 [32]": {"test_system": "A549", "test": "Induction of apoptosis in human A549 cells assessed as apoptotic rate at IC50 incubated for 48 hrs by Annexin-V and 7-AAD staining based flow cytometric analysis (reference value: 6.56 +/- 1.17%)", "type": "functional"}, "MCF7 [33]": {"test_system": "MCF7", "test": "Induction of apoptosis in human MCF7 cells assessed as increase in apoptotic cells incubated for 48 hrs by Annexin-V and 7-AAD staining based flow cytometric analysis (reference value: 7.53 +/- 1.16%)", "type": "functional"}, "Chorioallantoic membrane": {"test_system": "Chorioallantoic membrane", "test": "Anti-angiogenesis activity in chicken embryo chorioallantoic membrane assessed as reduction in blood vessel formation by imaging analysis", "type": "functional, tissue-based", "conditions": "Gallus gallus, TDE = time-dependent effect"}, "MCF7 [34]": {"test_system": "MCF7", "test": "Antitumor activity against human MCF7 cells xenografted in chicken embryo chorioallantoic membrane assessed as reduction in tumor size", "type": "functional, cell-based", "conditions": "dose 1.5-4.5 µM"}, "A549 [35]": {"test_system": "A549", "test": "Antitumor activity against human A549 cells xenografted in chicken embryo chorioallantoic membrane assessed as change in nuclear morphology at 1.5 to 4.5 uM by H and E staining based analysis", "type": "functional, cell-based", "conditions": "dose 1.5-4.5 µM"}, "MCF7 [36]": {"test_system": "MCF7", "test": "Antitumor activity against human MCF7 cells xenografted in chicken embryo chorioallantoic membrane assessed as change in nuclear morphology at 1.5 to 4.5 uM by H and E staining based analysis", "type": "functional, cell-based", "conditions": "dose 1.5-4.5 µM"}, "Mitochondrial membrane [37]": {"test_system": "Mitochondrial membrane", "test": "Disruption of mitochondrial membrane potential in human A549 cells assessed as translocation of cytochrome c to cytoplasm at IC50 incubated for 48 hrs by confocal microscopic analysis", "type": "cell membranes"}, "Mitochondrial membrane [38]": {"test_system": "Mitochondrial membrane", "test": "Disruption of mitochondrial membrane potential in human MCF7 cells assessed as translocation of cytochrome c to cytoplasm at IC50 incubated for 48 hrs by confocal microscopic analysis", "type": "cell membranes"}}, "note": "pIC50: −log10 of the molar value. The source made the active and inactive calls. No cut-off for these calls is given here."}
{"smiles": "CC(=S)NC1CCc2[nH]c3ccc(Br)cc3c2C1", "note": "(stereo not given)", "values": [{"measurement": "Activity", "setting": "Mitochondrial membrane [1]", "value": "Active"}, {"measurement": "pIC50", "setting": "A549 [2]", "value": 5.34}, {"measurement": "IC50 at 72 h", "setting": "[3]", "value": "> 50", "unit": "µM"}, {"measurement": "inhibition", "setting": "MCF7 [4]", "value": "Dose-Dependent Effect"}, {"measurement": "inhibition", "setting": "HCT-116", "value": "Dose-Dependent Effect"}, {"measurement": "inhibition", "setting": "A549 [5]", "value": "Dose-Dependent Effect"}, {"measurement": "inhibition", "setting": "A549 [6]", "value": "Active"}, {"measurement": "Activity", "setting": "A549 [7]", "value": 31.6, "unit": "%"}, {"measurement": "Activity", "setting": "A549 [8]", "value": 14.3, "unit": "%"}, {"measurement": "Activity", "setting": "A549 [9]", "value": 46.15, "unit": "%"}, {"measurement": "Activity", "setting": "A549 [10]", "value": 30.8, "unit": "%"}, {"measurement": "Activity", "setting": "MCF7 [11]", "value": 33.7, "unit": "%"}, {"measurement": "Activity", "setting": "MCF7 [12]", "value": 25.65, "unit": "%"}, {"measurement": "Activity", "setting": "MCF7 [13]", "value": 25.95, "unit": "%"}, {"measurement": "Activity", "setting": "Mitochondrial membrane [14]", "value": "Active"}, {"measurement": "Activity", "setting": "Mitochondrial membrane [15]", "value": "Active"}, {"measurement": "Activity", "setting": "Mitochondrial membrane [16]", "value": "Active"}, {"measurement": "Activity", "setting": "Mitochondrial membrane [17]", "value": "Active"}, {"measurement": "Activity", "setting": "Mitochondrial membrane [18]", "value": "Active"}, {"measurement": "Activity", "setting": "Mitochondrial membrane [19]", "value": "Active"}, {"measurement": "Activity", "setting": "Mitochondrial membrane [20]", "value": "Active"}, {"measurement": "Activity", "setting": "Mitochondrial membrane [21]", "value": "Active"}, {"measurement": "Activity", "setting": "Mitochondrial membrane [22]", "value": "Active"}, {"measurement": "Activity", "setting": "Mitochondrial membrane [23]", "value": "Active"}, {"measurement": "Activity", "setting": "Mitochondrial membrane [24]", "value": "Active"}, {"measurement": "Activity", "setting": "Mitochondrial membrane [25]", "value": "Active"}, {"measurement": "Activity", "setting": "Mitochondrial membrane [26]", "value": "Active"}, {"measurement": "Activity", "setting": "Mitochondrial membrane [27]", "value": "Active"}, {"measurement": "Activity", "setting": "Mitochondrial membrane [28]", "value": "Active"}, {"measurement": "Activity", "setting": "Mitochondrial membrane [29]", "value": "Active"}, {"measurement": "Activity", "setting": "Mitochondrial membrane [30]", "value": "Active"}, {"measurement": "Activity", "setting": "A549 [31]", "value": 20.75, "unit": "%"}, {"measurement": "Activity", "setting": "A549 [32]", "value": 42.87, "unit": "%"}, {"measurement": "Activity", "setting": "MCF7 [33]", "value": 47.28, "unit": "%"}, {"measurement": "Activity", "setting": "Chorioallantoic membrane", "value": "Tde"}, {"measurement": "Activity", "setting": "MCF7 [34]", "value": "Dose-Dependent Effect"}, {"measurement": "Activity", "setting": "A549 [35]", "value": "Active"}, {"measurement": "Activity", "setting": "MCF7 [36]", "value": "Active"}, {"measurement": "Activity", "setting": "Mitochondrial membrane [37]", "value": "Active"}, {"measurement": "Activity", "setting": "Mitochondrial membrane [38]", "value": "Active"}]}
